pKd: −log10 of the molar value. Residues, ends and D or L forms follow the SMILES beside them.
Key:
[1] = target: HLA-B7.2 (Homo sapiens, UniProt P01889); experiment: HLA-B7 peptide binding affinity assay
[2] = test system: epitope-specific TMr+CD8+ T cells; details: median over 7 HLA-A2+ new-onset T1D patients; cited from earlier work

Chain of HLA-B7.2 (P01889 25-299 limits assumed): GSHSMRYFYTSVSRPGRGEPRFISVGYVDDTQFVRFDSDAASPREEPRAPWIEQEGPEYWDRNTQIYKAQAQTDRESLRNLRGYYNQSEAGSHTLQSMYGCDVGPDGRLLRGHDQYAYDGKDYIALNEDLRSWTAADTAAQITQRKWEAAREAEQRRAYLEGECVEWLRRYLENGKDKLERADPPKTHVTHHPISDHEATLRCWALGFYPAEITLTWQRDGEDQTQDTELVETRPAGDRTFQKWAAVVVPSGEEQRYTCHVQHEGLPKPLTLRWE
Chain of HLA-B7.2 (P61769 21-119 partner): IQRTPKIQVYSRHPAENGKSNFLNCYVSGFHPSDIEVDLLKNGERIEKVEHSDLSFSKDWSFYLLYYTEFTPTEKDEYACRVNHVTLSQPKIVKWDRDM

CC[C@H](C)[C@H](N)C(=O)N1CCC[C@H]1C(=O)N[C@@H](CO)C(=O)N[C@@H](CC(=O)O)C(=O)N[C@@H](CC(C)C)C(=O)N[C@@H](CCC(=O)O)C(=O)N[C@@H](CCCNC(=N)N)C(=O)N[C@@H](CCCNC(=N)N)C(=O)N[C@H](C(=O)N[C@@H](CC(C)C)C(=O)O)[C@@H](C)CC [GAD311–320] (H-IPSDLERRIL-OH)
pKd [1]: 7.00

CC[C@H](C)[C@H](NC(=O)[C@@H](NC(=O)[C@@H]1CCCN1C(=O)[C@H](C)N)C(C)C)C(=O)N[C@@H](CCCCN)C(=O)N[C@@H](C)C(=O)N[C@@H](CCCNC(=N)N)C(=O)N[C@@H](CCSC)C(=O)N[C@@H](CCSC)C(=O)O [GAD530–538] (H-APVIKARMM-OH)
pKd [1]: 7.21

CC(C)C[C@H](NC(=O)[C@H](C)NC(=O)[C@H](CC(C)C)NC(=O)[C@H](CC(C)C)NC(=O)[C@H](C)NC(=O)[C@H](CC(C)C)NC(=O)[C@H](CC(C)C)NC(=O)[C@@H]1CCCN1C(=O)[C@@H](N)CC(C)C)C(=O)O [PPI8–16] (H-LPLLALLAL-OH)
pKd [1]: 5.96

PPI6–14: HLA-A2–restricted preproinsulin epitope used for comparison (RLLPLLALL; UniProt P01308 6-14, looked up, fragment)
percent of epitope-specific T cells expressing IFNG mRNA, HLA-A2–restricted [2]: 60%
percent of epitope-specific T cells expressing TGFB mRNA, HLA-A2–restricted [2]: 13%

Reference: PMC3447897 (Diabetes, 2012)
